According to publication PMC3857224, “Inhibition of DNA Glycosylases via Small Molecule Purine Analogs” (PLoS ONE, 2013):

Experiments:
NEIL1 = target: T1, NEIL1 (Homo sapiens, UniProt Q96FI4); assay: qHTS fluorogenic glycosylase/AP lyase assay, 1536-well, Sp/Gh substrate; assay type: biochemical; conditions: 5 concentrations
T1 construct: made in house
Protocol: The fluorogenic assay was miniaturized to 4 µL in 1536-well black solid plates by optimization of the enzyme and Sp/Gh substrate concentrations. Briefly, 3 µL of 25 nM NEIL1 were dispensed into each well of a 1536-well plate (except buffer in columns 3 and 4 as a negative control). Compounds (DMSO solutions) and control (DMSO only) (23 nL) were transferred to the plate via Kalypsys pintool. The plate was incubated for 15 min at room temperature, and then 1 µL of the Sp/Gh-containing DNA substrate (75 nM final concentration) was added to start the reaction. The plate was immediately transferred into the ViewLux reader for the kinetic fluorescence read. Initial rate data were normalized against uninhibited and no-enzyme controls and the resulting percent activities as a function of compound concentration were fitted using the Hill equation.
Having established the general principle for a glycosylase screening assay, further assay development was undertaken to enable HTS in which the reaction volumes were reduced by 5-fold to a total of 4 µL. Initially, the library of pharmacologically active compounds (LOPAC^1280) was screened for inhibitors of NEIL1 as a determination of the feasibility of this high-throughput method. […] All compounds were screened at 5 different concentrations that allowed for the initial estimation of inhibitory potency (IC50) values, as well as an evaluation of the shape of the response curves. In addition to the anticipated inhibitors (known DNA intercalators, such as ellipticine (IC50 = 2 µM)) and other small molecules that have been previously established to be promiscuous inhibitors (such as aurintricarboxylic acid (IC50<1 µM)), one interesting hit from this screen was CGP-74514A (NCGC ID is NCGC00015229) (Figure 5A). CGP-74514A is a known small molecule inhibitor of Cdk1 in which the structure of this molecule is based on a purine ring backbone.

duplex DNA ladder = assay: DNA ladder gel-shift intercalation assay; assay type: binding; conditions: 40 µM compound, 20 min room temperature
Protocol: To test whether potential inhibitors could exert their inhibitory effect via DNA intercalation, 10 µL reactions containing 500 ng of a 100-bp DNA ladder were incubated at room temperature for 20 min with 40 µM of the selected compound. Ellipticine, a compound that is known to intercalate into duplex DNA was used as a control compound at a final concentration of 40 µM. Samples were resolved on a 1% agarose gel in 0.5X Tris-borate EDTA running buffer at 120 V for 2 h. Shifts in gel mobility were visualized by post staining with ethidium bromide and images were captured on a ChemiImager 5500 (Protein Simple, Santa Clara, CA).
To assay whether these inhibitors could block NEIL1 activity through DNA intercalation, a DNA ladder gel-shift assay was performed, with ellipticine serving as a positive control. A duplex DNA ladder was incubated with each inhibitor, and analyzed for electrophoretic mobility shift.

T1 sequence (Q96FI4 whole entry): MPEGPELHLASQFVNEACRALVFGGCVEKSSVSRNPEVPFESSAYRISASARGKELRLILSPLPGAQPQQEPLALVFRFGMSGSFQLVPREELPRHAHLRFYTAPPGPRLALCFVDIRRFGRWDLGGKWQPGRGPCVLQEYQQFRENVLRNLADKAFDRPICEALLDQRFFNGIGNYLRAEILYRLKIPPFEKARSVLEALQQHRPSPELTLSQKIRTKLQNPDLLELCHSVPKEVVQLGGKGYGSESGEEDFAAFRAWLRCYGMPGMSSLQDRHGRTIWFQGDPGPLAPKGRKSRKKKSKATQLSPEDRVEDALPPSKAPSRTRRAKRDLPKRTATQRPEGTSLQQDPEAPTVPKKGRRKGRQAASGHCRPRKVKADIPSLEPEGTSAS

Cc1c2ccncc2c(C)c2c1[nH]c1ccccc12 [ellipticine, reference compound]
IC50 (NEIL1): 2000 nM
shift in electrophoretic mobility of DNA ladder (intercalation) (duplex DNA ladder): major reduction in the electrophoretic mobility
